Measured values from ChEMBL document CHEMBL1137368, “Antitumor activity of substituted E-3-(3,4,5-trimethoxybenzylidene)-1,3-dihydroindol-2-ones1” (2006).
Where a name gives a salt, the structure may show the parent alone.

Legend:
Type in all cases: functional
Details in all cases: Homo sapiens; for TGI: read-out: pTGI (converted)
[1] = tested on: Panel leukemia (Carcinoma cell lines); test: Anticancer activity against leukemia cancer cell lines of NCI60 panel
[2] = tested on: NSCLC; test: Anticancer activity against NSCLC cancer cell lines of NCI60 panel
[3] = tested on: Panel colon (Carcinoma cell lines); test: Anticancer activity against colon cancer cell lines of NCI60 panel
[4] = tested on: Panel CNS (Carcinoma cell lines); test: Anticancer activity against CNS cancer cell lines of NCI60 panel
[5] = tested on: Panel melanoma (Carcinoma cell lines); test: Anticancer activity against melanoma cancer cell lines of NCI60 panel
[6] = tested on: Panel ovarian (Carcinoma cell lines); test: Anticancer activity against ovarian cancer cell lines of NCI60 panel
[7] = tested on: Panel renal (Carcinoma cell lines); test: Anticancer activity against renal cancer cell lines of NCI60 panel
[8] = tested on: Panel prostate (Carcinoma cell lines); test: Anticancer activity against prostate cancer cell lines of NCI60 panel
[9] = tested on: Panel breast (Carcinoma cell lines); test: Anticancer activity against breast cancer cell lines of NCI60 panel

## COc1ccc2c(c1)/C(=C\c1cc(OC)c(OC)c(OC)c1)C(=O)N2
[1]
  GI50: 0.0871 µM
  TGI: 11.2 µM
[2]
  GI50: 1.12 µM
  TGI: 58.9 µM
[3]
  GI50: 0.182 µM
  LC50: 83.2 µM
  TGI: 32.4 µM
[4]
  GI50: 0.417 µM
  LC50: 95.5 µM
  TGI: 12.6 µM
[5]
  GI50: 0.891 µM
  LC50: 95.5 µM
  TGI: 41.7 µM
[6]
  GI50: 0.676 µM
  LC50: 41.7 µM
  TGI: 15.5 µM
[7]
  GI50: 0.575 µM
  LC50: 91.2 µM
  TGI: 19.1 µM
[8]
  GI50: 0.692 µM
[9]
  GI50: 0.398 µM
  LC50: 50.1 µM
  TGI: 14.8 µM

## COc1cc(/C=C2/C(=O)Nc3cccc(Cl)c32)cc(OC)c1OC
[1]
  GI50: 2.4 µM
  TGI: 16.2 µM
[2]
  GI50: 75.9 µM
[4]
  GI50: 61.7 µM
  TGI: 97.7 µM
[6]
  GI50: 89.1 µM
[7]
  GI50: 61.7 µM
[9]
  GI50: 85.1 µM

## COc1cc2c(cc1C)NC(=O)/C2=C/c1cc(OC)c(OC)c(OC)c1
[1]
  GI50: 18.2 µM
  TGI: 52.5 µM
[2]
  GI50: 57.5 µM
  TGI: 81.3 µM
[3]
  GI50: 85.1 µM
[4]
  GI50: 41.7 µM
  TGI: 83.2 µM
[5]
  GI50: 74.1 µM
[6]
  GI50: 75.9 µM
[7]
  GI50: 55 µM
  TGI: 89.1 µM
[9]
  TGI: 93.3 µM

## COc1cc(/C=C2/C(=O)Nc3ccc(F)cc32)cc(OC)c1OC
[1]
  GI50: 14.1 µM
[2]
  GI50: 26.9 µM
  TGI: 91.2 µM
[3]
  GI50: 30.9 µM
[4]
  GI50: 33.1 µM
  TGI: 85.1 µM
[5]
  GI50: 37.2 µM
[6]
  GI50: 44.7 µM
[7]
  GI50: 34.7 µM
[8]
  GI50: 27.5 µM
[9]
  GI50: 9.55 µM
  TGI: 87.1 µM

## COc1cc(/C=C2/C(=O)Nc3ccc(O)cc32)cc(OC)c1OC
[1]
  GI50: 3.02 µM
  TGI: 30.9 µM
[2]
  GI50: 11.7 µM
  LC50: 89.1 µM
  TGI: 40.7 µM
[3]
  GI50: 12.3 µM
  LC50: 83.2 µM
  TGI: 47.9 µM
[4]
  GI50: 8.71 µM
  LC50: 91.2 µM
  TGI: 41.7 µM
[5]
  GI50: 10 µM
  LC50: 69.2 µM
  TGI: 27.5 µM
[6]
  GI50: 14.1 µM
  LC50: 93.3 µM
  TGI: 47.9 µM
[7]
  GI50: 14.1 µM
  LC50: 83.2 µM
  TGI: 44.7 µM
[8]
  GI50: 2.4 µM
  TGI: 19.1 µM
[9]
  GI50: 9.12 µM
  LC50: 97.7 µM
  TGI: 52.5 µM

## COc1cc(/C=C2/C(=O)Nc3ccccc32)cc(OC)c1OC
[1]
  GI50: 7.59 µM
  TGI: 87.1 µM
[2]
  GI50: 18.6 µM
  TGI: 85.1 µM
[3]
  GI50: 15.1 µM
  TGI: 75.9 µM
[4]
  GI50: 12.3 µM
  TGI: 85.1 µM
[5]
  GI50: 20 µM
  TGI: 81.3 µM
[6]
  GI50: 24.5 µM
  TGI: 95.5 µM
[7]
  GI50: 18.6 µM
  TGI: 75.9 µM
[8]
  GI50: 18.6 µM
[9]
  GI50: 19.1 µM
  TGI: 77.6 µM

## COc1cc(/C=C2/C(=O)N(c3ccccc3)c3ccccc32)cc(OC)c1OC
[1]
  GI50: 2.29 µM
  TGI: 14.1 µM
[2]
  GI50: 9.33 µM
  LC50: 83.2 µM
  TGI: 36.3 µM
[3]
  GI50: 5.75 µM
  LC50: 67.6 µM
  TGI: 26.9 µM
[4]
  GI50: 6.03 µM
  LC50: 72.4 µM
  TGI: 30.9 µM
[5]
  GI50: 7.41 µM
  LC50: 52.5 µM
  TGI: 20.9 µM
[6]
  GI50: 10 µM
  LC50: 83.2 µM
  TGI: 32.4 µM
[7]
  GI50: 5.75 µM
  LC50: 64.6 µM
  TGI: 23.4 µM
[8]
  GI50: 3.16 µM
  TGI: 16.2 µM
[9]
  GI50: 8.32 µM
  TGI: 53.7 µM

## COc1cc(/C=C2/C(=O)Nc3ccc(Cl)cc32)cc(OC)c1OC
[1]
  GI50: 8.71 µM
[2]
  GI50: 20.9 µM
  TGI: 74.1 µM
[3]
  GI50: 8.32 µM
  TGI: 93.3 µM
[4]
  GI50: 17.4 µM
  TGI: 56.2 µM
[5]
  GI50: 28.2 µM
[6]
  GI50: 17 µM
  TGI: 77.6 µM
[7]
  GI50: 15.8 µM
  TGI: 64.6 µM
[8]
  GI50: 2.95 µM
[9]
  GI50: 15.8 µM
  TGI: 56.2 µM

## COc1cc(/C=C2/C(=O)N(C)c3ccccc32)cc(OC)c1OC
[1]
  GI50: 7.24 µM
  TGI: 70.8 µM
[2]
  GI50: 18.2 µM
  TGI: 67.6 µM
[3]
  GI50: 13.5 µM
  TGI: 61.7 µM
[4]
  GI50: 9.55 µM
  TGI: 81.3 µM
[5]
  GI50: 17.4 µM
  TGI: 43.7 µM
[6]
  GI50: 18.2 µM
  TGI: 81.3 µM
[7]
  GI50: 12.3 µM
  TGI: 61.7 µM
[8]
  GI50: 10.5 µM
[9]
  GI50: 19.5 µM
  TGI: 77.6 µM

## CC[C@]1(O)C[C@H]2CN(CCc3c([nH]c4ccccc34)[C@@](C(=O)OC)(c3cc4c(cc3OC)N(C=O)[C@H]3[C@@](O)(C(=O)OC)[C@H](OC(C)=O)[C@]5(CC)C=CCN6CC[C@]43[C@@H]65)C2)C1 [VINCRISTINE SULFATE]
[1]
  GI50: 0.1 µM
  TGI: 15.8 µM
[2]
  GI50: 0.251 µM
  TGI: 15.8 µM
[3]
  GI50: 0.1 µM
  TGI: 3.98 µM
[4]
  GI50: 0.126 µM
  TGI: 6.31 µM
[5]
  GI50: 0.158 µM
  TGI: 7.94 µM
[6]
  GI50: 0.316 µM
  TGI: 20 µM
[7]
  GI50: 0.316 µM
  TGI: 20 µM
[8]
  GI50: 0.126 µM
  TGI: 6.31 µM
[9]
  GI50: 0.316 µM
  TGI: 7.94 µM
